Where “and” joins values, the source holds several entries; their conditions need not be identical. Identical values can stand only once.
Key:
[1] = test system: Tet-ON mdaB::ptetR; urePtetO strains; assay: In vivo induction of urePtetO by doxycycline, C57BL/6J infection model; set-up: species or system H. pylori; details: for dox concentration at which the strain could be re-isolated: one week of infection, C57BL/6J mice
Description: Regulation of urePtetO to drive the expression of urease by dox was evaluated using a C57BL/6J infection model. Mice were orally challenged with one of several Tet-ON, mdaB::ptetR; urePtetO strains and supplemented with a range of dox concentrations that were within the tolerance of X47. Urease is known to be an essential gene required for colonization, and therefore Tet-ON urePtetO strains should not be able to colonize in the absence of the inducer. […] Infection of urePtetO strains is dependent on dox supplementation (FIG. 9F). Mice were supplemented with dox for two weeks after infection to establish successful colonization of mdaB:: ptetR4; urePtetOI. […] Infection by strain mdaB::ptetR4; urePtetOI could be maintained for at least 4 weeks with dox supplementation.
6-7 week old C57BL/6J female mice were orally gavaged once with 200 μL of 1×10^9 CFU/mL bacteria, that had been passaged on CBA plates containing 50 ng/mL ATc to induce expression of tetracycline responsive genes. Mice were supplemented with doxycycline in their drinking water containing 5% sucrose. Mice were sacrificed at indicated time points and stomachs were removed and homogenized in 1 mL BHI using a tissue lysing agent (Retch). Homogenates were serially diluted and plated out on H. pylori selective plates, (CBA containing 5% Horse blood, Dent, polymyxin B 2500 U/L or 0.2975 mg/L, nalidixic acid 10 mg/L and Bacitracin 100 mg/L). Colonies were counted to calculate bacteria load. Re-isolated clones were checked for tet responsive gene expression and sequenced when appropriate.

[2] = test system: TetR-controlled GFP expression (uPtetO-GFP); assay: GFP reporter assay, liquid culture (BHI), induction by ATc; format: cell-based, H. pylori; details: for induction of GFP expression: 100 ng/mL ATc, BHI media
Description: 5 mL cultures were grown for 14 h and then induced with 200 ng/mL ATc unless otherwise stated. Bacteria were harvested by centrifugation, washed twice with PBS and resuspended to a density of 20D600. Then, 0.1 ml of the bacterial suspension was transferred into black 96-well plates, and fluorescence at 520 nm after excitation at 485 nm was measured in using the POLARstar Omega platereader.

[3] = test system: GFP expression in strains expressing TetR or revTetR; assay: GFP fluorescence on blood agar plates with ATc; format: cell-based, H. pylori; details: 50 ng/mL ATc in blood agar plates
Description: Bacteria were plated onto fresh CBA plates with or without 50 ng/mL ATc and visualized after 24 hr incubation. For Tet-OFF strains, ptetR(2,4,6) bacteria were passaged twice on CBA plates containing ATc prior to the experiments, to allow strains enough time to repress GFP expression.

ptetR2 and uPtetO1-GFP = assay: GFP disc diffusion assay; format: cell-based, H. pylori; details: bacterial lawns containing ptetR2 and uPtetO1-GFP; after 24 hours of incubation
[4] = test system: TetR-controlled GFP expression; assay: Kinetics of uPtetO1-GFP induction by immunoblotting; format: cell-based, H. pylori
Description: (§1) Immunoassays—SDS-PAGE and Western Blot Analysis
Whole cell lysates of bacteria growing on either chloramphenicol or streptomycin plates was resuspended in phosphate-buffered saline (PBS) buffer. Cells were pelleted and resuspended in lysis buffer (50 mM Tris-HCl, 250 mM NaCl, 1% triton X-100) and incubated on ice for 15 min. Samples were then sonicated for 10 sec. Insoluble cell debris was removed by centrifugation at 13,000 rpm form 10 min at 4° C. Cell lysates were mixed with sodium dodecyl sulfate (SDS) sample buffer and incubated at 95° C. for 10 min. The proteins were separated by 10% SDS-polyacrylamide gel electrophoresis (PAGE) and electrotransferred to a pvdf (0.22 μm Immobulon, Millipore) membrane at 4° C. with a constant voltage of 90 V in transfer buffer (192 mM glycine, 25 mM Tris, 20% [vol/vol] methanol) for 2 hours. The membrane was blocked by using 2% BSA (Sigma) in PBST (150 mM NaCl, 10 mM Tris-C1, pH 7.0, 0.1% [vol/vol] Tween 20) and then incubated with the appropriate primary antibody, washed and then incubated with a secondary antibody containing a horseradish peroxidise (HRP) conjugate. The membrane was washed again and detection of secondary HRP conjugate was accomplished by chemiluminescence (Sigma). […] Chemiluminescence was detected using LAS 3000 (Fujifilm)(software Image reader LAS 3000 V2.2)

H. pylori = assay: Minimal inhibitory concentration of ATc in liquid culture; format: cell-based; details: MIC as measured in liquid culture; maximal induction at 100 ng/mL
[5] = test system: urePtetO promoters (UreB subunit); assay: Immunoblotting of UreB in urePtetO strains; format: cell-based, H. pylori
Description: as §1
Whole cell lysates of bacteria growing on either chloramphenicol or streptomycin plates was resuspended in phosphate-buffered saline (PBS) buffer. Cells were pelleted and resuspended in lysis buffer (50 mM Tris-HCl, 250 mM NaCl, 1% triton X-100) and incubated on ice for 15 min. Samples were then sonicated for 10 sec. Insoluble cell debris was removed by centrifugation at 13,000 rpm form 10 min at 4° C. Cell lysates were mixed with sodium dodecyl sulfate (SDS) sample buffer and incubated at 95° C. for 10 min. The proteins were separated by 10% SDS-polyacrylamide gel electrophoresis (PAGE) and electrotransferred to a pvdf (0.22 μm Immobulon, Millipore) membrane at 4° C. with a constant voltage of 90 V in transfer buffer (192 mM glycine, 25 mM Tris, 20% [vol/vol] methanol) for 2 hours. The membrane was blocked by using 2% BSA (Sigma) in PBST (150 mM NaCl, 10 mM Tris-C1, pH 7.0, 0.1% [vol/vol] Tween 20) and then incubated with the appropriate primary antibody, washed and then incubated with a secondary antibody containing a horseradish peroxidise (HRP) conjugate. The membrane was washed again and detection of secondary HRP conjugate was accomplished by chemiluminescence (Sigma). For detection of TetR and revTetR, rabbit polyclonal IgG anti TetR (MoBiTec) at a dilution of 1:2000 was used as the primary. For detection of UreB subunit, mouse monoclonal IgG anti UreB (Austral Biologicals) was used at a dilution of 1:8000. For detection of GFP, rabbit polyclonal anti GFP (Ondek) was used at a dilution of 1:2000. Secondary antibodies, mouse anti-rabbit-HRP and rabbit anti-mouse-HRP (Jackson ImmunoResearch Laboratories) were used at a dilution of 1:10,000. Chemiluminescence was detected using LAS 3000 (Fujifilm)(software Image reader LAS 3000 V2.2)

[6] = test system: urease activity of X47 urePtetO strains; assay: Liquid urease activity assay; format: cell-based, H. pylori
Description: Bacteria were grown on CBA plates with or without 50 ng/mL ATc for two successive passages. Bacteria were resuspended in cold buffer A (25 mM phosphate buffer, pH 6.8) and standardized to an OD600 of 4.0. 50 μL of standardized bacterial suspension was diluted with 50 μL of buffer B (25 mM phosphate buffer, pH 6.8, 0.2% tween-20). In 96 well plate, 25 μL of diluted bacterial suspension was diluted with 150 μL of buffer C (25 mM phosphate buffer, pH 6.8, 250 μM phenol red) and incubated for 5 min at 37° C. 75 μL of urea solution (0.5 M) was then added and the absorbance at 560 nm was measured every 72 seconds for 75 cycles using a POLARstar Omega (BGM Labtech) platereader. Activity was measured as the rate of change in absorbance over time and expressed as percent of urease activity of the wild-type parent strain. All urease activity measurements were carried out in triplicate and experiments were repeated three times.

[7] = test system: urePtetO induction of Tet-ON strains; assay: Urease plate assay; format: cell-based, H. pylori; details: for ATc concentration at which significant urease activity is detected: after 24 h
urease activity = assay: Urease disc diffusion assay; format: cell-based, H. pylori; details: plate inoculated with untreated bacteria
Description: Bacteria were plated onto urease plates, and blank discs were placed onto the inoculated plate. 10 μL of ATc was placed onto each disc and plates were incubated under microaerophilic conditions and examined for colour change every […].

[8] = test system: uPtetO-cre in X47 mdaB:: ptetR2; assay: Immunoblotting of conditional cre expression; format: cell-based, H. pylori; details: 50 ng/ml ATc, liquid culture, trpA:: uPtetO-cre, both strains
From the text: In order to conditionally express the Cre recombinase in H. pylori two Tet responsive promoters uPtetO1 and uPtetO2 were selected to control the cre expression. They consist of the core urease promoter containing a C to T mutation in the −10 box and one tetO site just downstream of the transcriptional start point. uPtetO2 contains a second tetO site between the −35 and −10 box. A synthetic H. pylori codon usage optimized version of the cre gene was amplified and cloned into the plasmid pTrpA-uPtetO1-GFP and pTrpA-uPtetO2-GFP to replace GFP. Natural transformation of the recipient strain H. pylori X47 mdaB:: ptetR2; trpA:: rpsL-CAT with these plasmids (pTrpA-uPtetO(1/2)-Cre) allowed integration of uPtetO-cre fusions in the chromosome at the trpA locus by homologous recombination. The conditional expression of cre in the constructed strains X47 mdaB:: ptetR2; trpA:: uPtetO-cre was analyzed by immunoblotting. Bacteria were grown in liquid culture the presence of none or 50 ng/ml ATc, respectively.
Immunoassay—SDS-PAGE and Western Blot Analysis.
Bacteria were grown for 24 hours on selective plates or in selective liquid media. Cells were harvested and resuspended in phosphate-buffered saline (PBS) buffer. […] Chemiluminescence was detected using LAS 3000 (Fujifilm)(software Image reader LAS 3000 V2.2)

[9] = test system: B128 pHel2-IEC-Ts-FliCsyn transconjugants; assay: Immunoblotting of conditional fliCsyn expression; format: cell-based, H. pylori; details: selective blood agar plates with 50 ng/ml ATc; all tested clones
Description: The conditional expression of fliCsyn and expression of TetRs in the transconjugants B128 pHel2-IEC-Ts-FliCsyn was analyzed by immunobloting.
Bacteria were grown for 24 hours on selective plates or in selective liquid media. Cells were harvested and resuspended in phosphate-buffered saline (PBS) buffer. Samples were then sonicated for 10 seconds, mixed with sodium dodecyl sulfate (SDS) sample buffer and incubated at 37° C. for 15 min. Insoluble cell debris was removed by centrifugation at 13,000 rpm for 1 min. The proteins were separated by 10% SDS-polyacrylamide gel electrophoresis (PAGE) and electro-transferred to a PVDF membrane (Immobilon-P Transfer (0.45 μm, Millipore) with a constant voltage of 100 V in transfer buffer (192 mM glycine, 25 mM Tris, 20% [vol/vol] methanol) for 1 hour. The membranes were blocked with 3% BSA (Sigma) in PBST (150 mM NaCl, 10 mM Tris-C1, pH 7.0, 0.1% [vol/vol] Tween 20) and then incubated with the appropriate primary antibody, washed and then incubated with a secondary antibody containing a horseradish peroxidise (HRP) conjugate. The membrane was washed again and detection of secondary HRP conjugate was accomplished by chemiluminescence (Sigma). For detection of Cre recombinase, rabbit polyclonal IgG anti Cre (abcam) was used at a dilution of 1:1000. […] Chemiluminescence was detected using LAS 3000 (Fujifilm)(software Image reader LAS 3000 V2.2)

TetR = TetR (Escherichia coli, UniProt P0ACT4, D23E/I36V/T20V); details: cited from earlier work
Chain of TetR (P0ACT4 with tags, fused parts or gaps T20V/D23E/I36V): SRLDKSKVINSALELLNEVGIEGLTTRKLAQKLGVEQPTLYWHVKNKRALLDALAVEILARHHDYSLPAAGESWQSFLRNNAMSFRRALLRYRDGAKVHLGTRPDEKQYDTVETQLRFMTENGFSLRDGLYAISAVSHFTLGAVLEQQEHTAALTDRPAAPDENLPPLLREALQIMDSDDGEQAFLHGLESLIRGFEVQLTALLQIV

revTetR = revTetR (Escherichia coli, UniProt P0ACT4); details: cited from earlier work
Chain of revTetR (P0ACT4 with tags, fused parts or gaps E15A/L17G/T20V/D23E/L25V/I36V): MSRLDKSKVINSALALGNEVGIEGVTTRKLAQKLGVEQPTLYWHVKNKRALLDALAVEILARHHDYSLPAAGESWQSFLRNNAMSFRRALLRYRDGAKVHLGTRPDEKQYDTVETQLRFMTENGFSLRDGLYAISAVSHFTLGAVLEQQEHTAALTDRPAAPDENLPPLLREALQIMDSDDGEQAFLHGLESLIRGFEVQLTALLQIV

C[C@H]1c2cccc(O)c2C(=O)C2=C(O)[C@]3(O)C(=O)C(C(N)=O)=C(O)[C@@H](N(C)C)[C@@H]3[C@@H](O)[C@@H]21 [dox, doxycycline]
time infection could be maintained with dox supplementation ([1]; strain mdaB::ptetR4, urePtetOI): at least 4 weeks | dox concentration at which the strain could be re-isolated ([1]; strain mdaB::ptetR4, urePtetOI): 0.1 to 5 µg/mL | dox concentration at which the strain could be re-isolated ([1]; strain mdaB::ptetR6, urePtetOV): 5 to 20 µg/mL

Cc1c2c(c(O)c3c(O)cccc13)C(=O)[C@]1(O)C(=O)C(C(N)=O)=C(O)[C@@H](N(C)C)[C@@H]1C2 [ATc, Anhydrotetracycline]
induction of GFP expression ([2]; ptetR2 uPtetO1, all three recipient loci): 4-9 fold | induction of GFP expression ([2]; ptetR4 uPtetO1, all three recipient loci): 13-80 fold | induction of GFP expression ([2]; ptetR6 uPtetO1, all three recipient loci): 2-5 fold | induction of GFP expression ([2]; uPtetO2 strains, ptetR2): 1.5-3 fold | induction of GFP expression ([2]; uPtetO2 strains, ptetR4): 3-8 fold | induction of GFP expression ([2]; uPtetO2 strains, ptetR6): 3-8 fold | ATc concentration giving maximal GFP activities ([2]; bacteria grown in different concentrations of ATc): 100 ng/mL | GFP activities compared with maximal induction ([2]; induction with 25 ng/ml ATc): 2.4 fold lower | GFP expression (observed fluorescence intensities) ([3]; strains expressing TetR): induction | GFP expression (observed fluorescence intensities) ([3]; strains expressing revTetR): repression | GFP expression around ATc discs (ptetR2 and uPtetO1-GFP): halo of GFP expression is evident around each disc | time of maximal GFP activities after the addition of ATc ([4]; ptetR2 and ptetR4 containing bacteria): 16 h | kinetics of GFP induction ([4]; ptetR6 containing bacteria): strong but delayed induction | ATc concentration of maximal induction relative to the minimal inhibitory concentration (MIC) (H. pylori): 10 fold below | repression of UreB expression ([5]; constructs I, II and V of the Tet-OFF system): Incomplete repression | response of urePtetO to ATc ([5]; strains harbouring ptetR3): did not display response | abundance of the UreB subunit upon the addition of ATc ([5]; strains harbouring the revTetR repressor (Tet-OFF system)): reduced below the detection limit | urease activity on addition of ATc ([6]; strains ptetR2, urePtetOI and V, ptetR3, urePtetOIV and ptetR6, urePtetOV): only partially restored | urease activity on addition of ATc ([6]; strains ptetR2, urePtetOII, ptetR3, urePtetOI, II and III): completely restored urease activity | urease activity on addition of ATc ([6]; the other Tet-ON strains): below 10 % of wild-type urease activity | ATc concentration sufficient to induce all five urePtetO promoters ([7]; ptetR4 strains): 1 ng/mL | ATc concentrations at which urease activity decreases ([7]; ptetR4 strains): above 25 ng/mL | ATc concentrations at which urease activity decreases ([7]; ptetR6 strains): above 50 ng/mL | ATc concentration at which urease activity is evident ([7]; ptetR6 strains, urePtetOIII, only after 48 hr): 25 ng/mL and 50 ng/mL | ATc concentration at which significant urease activity is detected ([7]; ptetR6 strains, urePtetOIV): 10 ng/mL | ATc concentration at which significant urease activity is detected ([7]; ptetR6 strains, urePtetOV): 5 ng/mL | urease activity by diffusion of ATc from disc (urease activity): induced | cre expression [8]: induced | expression of FliCsyn [9]: showed expression of FliCsyn | binding affinity for TetR (TetR): very high binding affinity | binding affinity for revTetR (revTetR): very high binding affinity

From patent publication US9115363B2, “Gene expression and eradication system in Helicobacter pylori” (priority 2011, dated 2015)
